Literature values, collected in patent US7468434B2, “Diazene-bridge crown ether lithium compounds and methods for their use” (The University of Hong Kong, priority 2004, dated 2008).

Test system: retinal ganglion cells
Settings: ocular hypertensive model

Question: Which “prevention of degeneration of RGC” value does the source give for lithium chloride here?
Answer: could prevent degeneration of RGC
